Measured values: the supplement of paper PMC10331698
± gives the standard deviation of the averaged measurements.

Assays:
Assay in all cases: level (log10 ratio to DMSO vehicle control); higher = higher biomarker level / cell amount than vehicle control
[1] = compound: O=S(=O)(O)CCC(F)(F)C(F)(F)C(F)(F)C(F)(F)C(F)(F)C(F)(F)C(F)(F)C(F)(F)F [8:2 Fluorotelomer sulfonic acid] (in DMSO)
Method: (§1)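 BioMAP Diversity Plus panel of 12 human primary cell co-culture systems (3C, 4H, LPS, SAg, BT, BF4T, BE3C, CASM3C, HDF3CGF, KF3CT, MyoF, Mphg). Compounds were added 1 h before stimulation and left for 24 h (MyoF 48 h; BT 72 h for soluble read-outs or 6 d for IgG). Biomarkers were read by ELISA, cytotoxicity by SRB, PBMC viability and proliferation by Alamar Blue. Each well value was divided by the mean of 8 DMSO control wells on the same plate and log10 transformed; duplicate blinded samples were tested at 4 concentrations.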

[2] = compound: O=C(O)C(F)(F)C(F)(F)C(F)(F)C(F)(F)C(=O)O [Octafluoroadipic acid] (in DMSO)
Method: as §1

[3] = compound: O=C(O)C(F)(F)OC(F)(F)C(F)(F)OC(F)(F)C(F)(F)OC(F)(F)C(F)(F)C(F)(F)C(F)(F)F [Perfluoro-3,6,9-trioxatridecanoic acid] (in DMSO); conditions: 6700 nM
Method: as §1

[4] = compound: NS(=O)(=O)C(F)(F)C(F)(F)C(F)(F)C(F)(F)C(F)(F)C(F)(F)C(F)(F)C(F)(F)F [Perfluorooctanesulfonamide] (in DMSO)
Method: as §1

[5] = compound: O=C(O)CCC(F)(C(F)(F)F)C(F)(F)F [4,4-bis(Trifluoromethyl)-4-fluoropropanoic acid] (in DMSO)
Method: as §1

[6] = compound: O=C(O)C(F)(F)C(F)(F)C(F)(F)C(F)(F)C(F)(F)C(F)(F)C(F)(F)C(F)(F)F [Perfluorononanoic acid] (in DMSO)
Method: as §1

[7] = compound: CCOC(=O)CC(=O)C(F)(F)C(F)(F)F [Ethyl pentafluoropropionyl acetate] (in DMSO)
Method: as §1

[8] = compound: O=C(O)C(F)(OC(F)(F)C(F)(F)C(F)(F)F)C(F)(F)F [Ammonium perfluoro-2-methyl-3-oxahexanoate] (in Water)
Method: as §1

Row | Test System | level (log10) ([1]; 6700 nM) | level (log10) ([1]; 20000 nM) | level (log10) ([1]; 60000 nM) | level (log10) ([2]; 6700 nM) | level (log10) ([2]; 20000 nM) | level (log10) ([2]; 60000 nM) | level (log10) [3] | level (log10) ([4]; 6700 nM) | level (log10) ([4]; 20000 nM) | level (log10) ([5]; 6700 nM) | level (log10) ([5]; 20000 nM) | level (log10) ([5]; 60000 nM) | level (log10) ([6]; 6700 nM) | level (log10) ([6]; 20000 nM) | level (log10) ([7]; 6700 nM) | level (log10) ([7]; 20000 nM) | level (log10) ([7]; 60000 nM) | level (log10) ([8]; 6700 nM) | level (log10) ([8]; 20000 nM) | level (log10) ([8]; 60000 nM)
1 | 3C:CD87/uPAR | 0.0195 ± 0.016 | -0.001 ± 0.058 | -0.003 ± 0.03 | -0.023 ± 0.0057 | -0.0175 ± 0.025 | -0.014 ± 0.021 | 0.0095 ± 0.028 | 0.006 ± 0.0099 | -0.0425 ± 0.016 | 0.051 ± 0.0057 | 0.0265 ± 0.0078 | 0.0295 ± 0.044 | 0.002 ± 0.011 | -0.018 ± 0.016 | 0.011 ± 0.0042 | 0.0075 ± 0.00071 | -0.003 ± 0.011 | -0.016 ± 0.054 | -0.0085 ± 0.028 | -0.042 ± 0.021
2 | BE3C:CXCL10/IP-10 | -0.0205 ± 0.012 | -0.122 ± 0.019 | -0.237 ± 0.02 | -0.0035 ± 0.0035 | -0.002 ± 0.011 | 0.017 ± 0.023 | -1.1 ± 0.023 | -0.142 ± 0.0078 | -0.414 ± 0.0028 | 0.006 ± 0.034 | 0.0035 ± 0.023 | -0.0045 ± 0.0035 | -0.039 ± 0.025 | -0.145 ± 0.031 | -0.004 ± 0.011 | -0.013 ± 0.0028 | -0.008 ± 0.0042 | -0.0095 ± 0.013 | -0.001 ± 0.0042 | 0.0115 ± 0.0092
3 | BF4T:CD54/ICAM-1 | -0.006 ± 0.0014 | -0.0175 ± 0.00071 | -0.0325 ± 0.013 | -0.001 ± 0.025 | -0.007 ± 0.017 | 0.0065 ± 0.029 | -0.0705 ± 0.019 | -0.029 ± 0.0014 | -0.06 ± 0.045 | 0.0175 ± 0.013 | 0.006 ± 0.0071 | 0.002 ± 0.013 | -0.0035 ± 0.021 | -0.05 ± 0.014 | -0.0075 ± 0.0064 | -0.003 ± 0.014 | -0.02 ± 0.0071 | -0.0155 ± 0.012 | -0.0265 ± 0.016 | -0.0075 ± 0.0021
4 | SAg:CXCL8/IL-8 | -0.0075 ± 0.076 | -0.009 ± 0.014 | 0.071 ± 0.044 | 0.014 ± 0.018 | 0.01 ± 0.013 | 0.018 ± 0.031 | -0.023 ± 0.011 | -0.0015 ± 0.005 | -0.0505 ± 0.03 | 0.027 ± 0.035 | 0.0095 ± 0.064 | 0.019 ± 0.079 | -0.0165 ± 0.029 | 0.0095 ± 0.036 | -0.023 ± 0.016 | -0.0475 ± 0.032 | -0.007 ± 0.085 | 0.103 ± 0.0085 | 0.099 ± 0.0085 | 0.167 ± 0.047
5 | LPS:sPGE2 | -0.0245 ± 0.0035 | -0.078 ± 0.047 | -0.293 ± 0.017 | -0.002 ± 0.044 | -0.023 ± 0.0028 | -0.014 ± 0.017 | -0.0245 ± 0.013 | 0.07 ± 0.011 | 0.0945 ± 0.012 | -0.0445 ± 0.019 | -0.018 ± 0.033 | 0.011 ± 0.0085 | -0.0695 ± 0.00071 | -0.144 ± 0.0064 | 0.0175 ± 0.012 | -0.0005 ± 0.013 | 0.034 ± 0.0014 | 0.093 ± 0.061 | 0.0575 ± 0.039 | 0.0765 ± 0.018
6 | LPS:CXCL8/IL-8 | 0.01 ± 0.11 | 0.0485 ± 0.012 | -0.053 ± 0.17 | 0.0015 ± 0.032 | -0.0035 ± 0.054 | 0.0415 ± 0.1 | -0.0465 ± 0.061 | 0.005 ± 0.016 | -0.008 ± 0.0014 | 0.011 ± 0.0028 | 0.007 ± 0.02 | 0.0135 ± 0.054 | 0.024 ± 0.013 | 0.0355 ± 0.0092 | -0.022 ± 0.025 | -0.01 ± 0.0071 | -0.0005 ± 0.023 | 0.023 ± 0.031 | 0.0895 ± 0.016 | 0.131 ± 0.017
7 | 4H:CCL2/MCP-1 | -0.001 ± 0.014 | -0.033 ± 0.016 | 0.0125 ± 0.046 | -0.03 ± 0.018 | -0.0365 ± 0.025 | 0.03 ± 0.024 | -0.029 ± 0.0099 | -0.093 ± 0.023 | -0.124 ± 0.0021 | 0.016 ± 0.024 | 0.0275 ± 0.03 | 0.023 ± 0.047 | -0.074 ± 0.013 | -0.0405 ± 0.005 | -0.0235 ± 0.029 | -0.0455 ± 0.064 | -0.008 ± 0.1 | 0.0005 ± 0.029 | 0.007 ± 0.037 | 0.008 ± 0.051
8 | SAg:CD69 | -0.025 ± 0.057 | -0.0205 ± 0.04 | -0.043 ± 0.075 | 0.0345 ± 0.073 | 0.0345 ± 0.056 | 0.0315 ± 0.054 | -0.0065 ± 0.0021 | -0.0205 ± 0.06 | -0.119 ± 0.064 | -0.0395 ± 0.0021 | -0.0205 ± 0.00071 | -0.0515 ± 0.046 | -0.035 | -0.0335 ± 0.015 | 0.0075 ± 0.026 | -0.0015 ± 0.029 | 0.019 ± 0.05 | -0.046 ± 0.0071 | -0.0265 ± 0.019 | -0.0205 ± 0.005
9 | BF4T:tPA | -0.0045 ± 0.028 | -0.0525 ± 0.0021 | -0.0465 ± 0.016 | -0.007 ± 0.0014 | -0.0065 ± 0.025 | 0.0035 ± 0.005 | -0.185 ± 0.057 | -0.059 ± 0.013 | 0.006 ± 0.02 | -0.0185 ± 0.035 | -0.019 ± 0.013 | -0.0035 ± 0.023 | -0.025 ± 0.027 | -0.0995 ± 0.026 | -0.0045 ± 0.0092 | -0.0035 ± 0.0092 | -0.0145 ± 0.011 | 0.0405 ± 0.0078 | 0.0575 ± 0.033 | 0.0185 ± 0.019
10 | BT:sIL-6 | 0.015 ± 0.035 | 0.0445 ± 0.015 | -0.005 ± 0.085 | 0.013 ± 0.083 | 0.021 ± 0.016 | -0.102 ± 0.14 | 0.0165 ± 0.032 | -0.0455 ± 0.023 | -0.0485 ± 0.026 | 0 ± 0.12 | -0.0215 ± 0.069 | -0.0665 ± 0.046 | 0.0215 ± 0.016 | 0.0145 ± 0.0092 | 0.019 ± 0.099 | 0.046 ± 0.11 | -0.053 ± 0.1 | -0.0915 ± 0.0035 | -0.0905 ± 0.021 | -0.151 ± 0.014
11 | LPS:CD69 | -0.0455 ± 0.06 | -0.035 ± 0.071 | -0.0835 ± 0.049 | 0.0545 ± 0.076 | 0.0595 ± 0.047 | 0.0515 ± 0.064 | 0.013 ± 0.0014 | -0.0475 ± 0.0064 | -0.13 | -0.0145 ± 0.077 | -0.0265 ± 0.015 | -0.045 ± 0.025 | -0.0275 ± 0.022 | -0.038 ± 0.013 | -0.02 ± 0.013 | -0.048 ± 0.02 | -0.021 ± 0.072 | 0.03 ± 0.0028 | 0 ± 0.028 | -0.0315 ± 0.04
12 | BE3C:EGFR | 0.002 ± 0.0028 | -0.014 ± 0.018 | 0.004 ± 0.0099 | -0.012 ± 0.017 | -0.0015 ± 0.005 | 0.0105 ± 0.016 | -0.212 ± 0.022 | -0.0005 ± 0.00071 | -0.044 ± 0.0014 | 0.003 ± 0.02 | -0.0105 ± 0.018 | -0.012 ± 0.014 | -0.023 ± 0.028 | -0.0285 ± 0.03 | -0.006 ± 0.0099 | 0.0025 ± 0.005 | -0.006 ± 0.023 | -0.016 ± 0.023 | -0.009 ± 0.0085 | 0.005 ± 0.0057
13 | BF4T:uPA | 0.012 ± 0.0085 | 0.0055 ± 0.00071 | 0.0175 ± 0.0092 | -0.0115 ± 0.023 | -0.0175 ± 0.03 | -0.003 | 0.0245 ± 0.018 | 0.014 ± 0.016 | 0.005 ± 0.034 | -0.0015 ± 0.011 | -0.0065 ± 0.016 | -0.001 ± 0.0042 | -0.01 ± 0.054 | 0.0335 ± 0.032 | -0.0145 ± 0.023 | -0.0045 ± 0.013 | -0.0175 ± 0.025 | -0.0025 ± 0.011 | -0.0005 ± 0.0078 | 0.0035 ± 0.022
14 | BF4T:MMP-1 | 0.005 ± 0.0085 | -0.002 ± 0.0071 | 0.0035 ± 0.0021 | 0.0065 ± 0.011 | -0.0025 ± 0.015 | 0.007 ± 0.0028 | -0.0535 ± 0.012 | 0.003 ± 0.016 | 0.0075 ± 0.019 | -0.0025 ± 0.012 | -0.0015 ± 0.00071 | -0.004 ± 0.013 | -0.012 ± 0.028 | 0.0095 ± 0.016 | -0.0045 ± 0.03 | -0.0005 ± 0.018 | 0.0155 ± 0.0035 | 0.031 ± 0.02 | 0.0105 ± 0.023 | 0.029 ± 0.011
